For this test, the target named is T1, MerTK (Homo sapiens, UniProt Q12866).
T1 construct: Seed HUVECs (10K cells/well) in EBM-2 complete media; host or cells: HUVEC (primary human umbilical vein endothelial cells)
T1 sequence (Q12866 21-999): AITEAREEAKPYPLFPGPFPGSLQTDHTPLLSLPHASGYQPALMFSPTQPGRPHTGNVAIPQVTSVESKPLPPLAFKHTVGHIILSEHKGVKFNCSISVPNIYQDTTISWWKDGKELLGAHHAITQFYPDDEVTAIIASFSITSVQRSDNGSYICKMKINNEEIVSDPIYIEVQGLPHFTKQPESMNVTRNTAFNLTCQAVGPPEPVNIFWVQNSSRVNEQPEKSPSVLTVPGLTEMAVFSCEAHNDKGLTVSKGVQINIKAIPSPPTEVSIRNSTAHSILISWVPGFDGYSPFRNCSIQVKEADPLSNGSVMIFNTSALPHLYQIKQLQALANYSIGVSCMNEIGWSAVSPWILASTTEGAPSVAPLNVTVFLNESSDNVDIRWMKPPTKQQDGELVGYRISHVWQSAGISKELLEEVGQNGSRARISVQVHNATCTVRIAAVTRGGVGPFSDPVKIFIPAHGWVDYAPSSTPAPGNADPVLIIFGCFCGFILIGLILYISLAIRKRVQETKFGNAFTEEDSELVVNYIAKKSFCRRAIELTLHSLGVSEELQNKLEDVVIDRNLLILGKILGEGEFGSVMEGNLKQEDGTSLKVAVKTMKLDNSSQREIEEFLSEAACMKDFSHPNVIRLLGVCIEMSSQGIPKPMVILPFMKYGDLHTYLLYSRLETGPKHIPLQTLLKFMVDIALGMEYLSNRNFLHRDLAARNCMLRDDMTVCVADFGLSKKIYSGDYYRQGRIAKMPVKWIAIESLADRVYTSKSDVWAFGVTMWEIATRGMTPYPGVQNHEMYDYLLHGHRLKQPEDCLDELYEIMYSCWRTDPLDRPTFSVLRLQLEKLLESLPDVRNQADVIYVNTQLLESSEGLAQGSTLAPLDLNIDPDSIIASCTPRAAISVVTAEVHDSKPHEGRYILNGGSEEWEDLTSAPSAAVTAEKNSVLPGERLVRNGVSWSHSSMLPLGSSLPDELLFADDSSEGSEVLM
As to the kind of experiment: PAKT HTRF-HUVEC assay (pAkt Ser473 HTRF after anti-human MerTK-XL stimulation). It is filed as cell-based. The note with it: HUVEC cells, 1 hour compound, stimulated with anti-human MerTK-XL 1 ug/mL for 10 minutes, read-out: inhibition of MerTK. The method, boiled down:
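Akt Ser473 phosphorylation measured by HTRF in lysates of serum-starved HUVECs. Cells received compound for 1 h at 37° C before a 10-min challenge with antibody-cross-linked anti-MerTK (1 ug/mL final); EC50 derived by curve fit.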

Molecules are shown by their SMILES.

Experimental findings from patent US11110082B2, “Tyrosine kinase inhibitors” (Rigel Pharmaceuticals, Inc., priority 2016, dated 2021) are described below.

As to `O=c1c2cc(CN3CCN(c4ccncn4)CC3)ccc2c2cnc(NCC3CC3)nc2n1[C@H]1CC[C@H](O)CC1` [Compound 216, trans-3-((Cyclopropylmethyl)amino)-5-(4-hydroxycyclohexyl)-8-((4-(pyrimidin-4-yl)piperazin-1-yl)methyl)pyrimido[4,5-c]isoquinolin-6(5H)-one], the EC50 was determined as 0.0225 µM. On to `O=c1c2cc(CN3CCC(c4ccncc4)CC3)ccc2c2cnc(NCC3CC3)nc2n1[C@H]1CC[C@H](O)CC1` [Compound 217, trans-3-((Cyclopropylmethyl)amino)-5-(4-hydroxycyclohexyl)-8-((4-(pyridin-4-yl)piperidin-1-yl)methyl)pyrimido[4,5-c]isoquinolin-6(5H)-one], for which the EC50 came out at 0.0041 µM. As to `O=c1c2cc(CC3CCN(c4ccncc4)CC3)ccc2c2cnc(NCC3CC3)nc2n1[C@H]1CC[C@H](O)CC1` [Compound 218, trans-3-((Cyclopropylmethyl)amino)-5-(4-hydroxycyclohexyl)-8-((1-(pyridin-4-yl)piperidin-4-yl)methyl)pyrimido[4,5-c]isoquinolin-6(5H)-one], the EC50 was 0.0242 µM. In the case of `CCC[C@H](C)Nc1ncc2c3ccc(CN4CCN(c5ccncc5)CC4)cc3c(=O)n([C@H]3CC[C@H](O)CC3)c2n1` [Compound 219, trans-5-(4-Hydroxycyclohexyl)-3-(((S)-pentan-2-yl)amino)-8-((4-(pyridin-4-yl)piperazin-1-yl)methyl)pyrimido[4,5-c]isoquinolin-6(5H)-one], the EC50 was found to be 0.0183 µM. With `O=c1c2cc(CN3CCN(c4ccncc4)CC3)ccc2c2cnc(NCC3CCC3)nc2n1[C@H]1CC[C@H](O)CC1` [Compound 220, trans-3-((Cyclobutylmethyl)amino)-5-(4-hydroxycyclohexyl)-8-((4-(pyridin-4-yl)piperazin-1-yl)methyl)pyrimido[4,5-c]isoquinolin-6(5H)-one], the EC50 was 0.0112 µM. Regarding `CCC(F)(F)CNc1ncc2c3ccc(CN4CCN(c5ccncc5)CC4)cc3c(=O)n([C@H]3CC[C@H](O)CC3)c2n1` [Compound 221, trans-3-((2,2-Difluorobutyl)amino)-5-(4-hydroxycyclohexyl)-8-((4-(pyridin-4-yl)piperazin-1-yl)methyl)pyrimido[4,5-c]isoquinolin-6(5H)-one], the EC50 came to 0.0861 µM. For `O=c1c2cc(CN3CCN(c4ccncc4)CC3)ccc2c2cnc(NCCC3CC3)nc2n1[C@H]1CC[C@H](O)CC1` [Compound 222, trans-3-((2-Cyclopropylethyl)amino)-5-(4-hydroxycyclohexyl)-8-((4-(pyridin-4-yl)piperazin-1-yl)methyl)pyrimido[4,5-c]isoquinolin-6(5H)-one], the EC50 came out at 0.0145 µM. As to `CC(C)CCNc1ncc2c3ccc(CN4CCN(c5ccncc5)CC4)cc3c(=O)n([C@H]3CC[C@H](O)CC3)c2n1` [Compound 223, trans-5-(4-Hydroxycyclohexyl)-3-(isopentylamino)-8-((4-(pyridin-4-yl)piperazin-1-yl)methyl)pyrimido[4,5-c]isoquinolin-6(5H)-one], the EC50 stood at 0.0143 µM. Consider `C[C@]1(O)CC[C@H](n2c(=O)c3cc(CN4CCN(c5ccncc5)CC4)ccc3c3cnc(NCC4CC4)nc32)CC1` [Compound 224, trans-3-((Cyclopropylmethyl)amino)-5-(4-hydroxy-4-methylcyclohexyl)-8-((4-(pyridin-4-yl)piperazin-1-yl)methyl)pyrimido[4,5-c]isoquinolin-6(5H)-one], for which the EC50 is 0.0283 µM. `O=c1c2cc(CN3CCN(c4ccncc4)CC3)ccc2c2cnc(NC3CCC3)nc2n1[C@H]1CC[C@H](O)CC1` [Compound 225, trans-3-(Cyclobutylamino)-5-(4-hydroxycyclohexyl)-8-((4-(pyridin-4-yl)piperazin-1-yl)methyl)pyrimido[4,5-c]isoquinolin-6(5H)-one]: the EC50 came to 0.021 µM.

As for `O=c1c2cc(CN3CCN(c4ccncn4)CC3)ccc2c2cnc(NC3CCC3)nc2n1[C@H]1CC[C@H](O)CC1` [Compound 226, trans-3-(Cyclobutylamino)-5-(4-hydroxycyclohexyl)-8-((4-(pyrimidin-4-yl)piperazin-1-yl)methyl)pyrimido[4,5-c]isoquinolin-6(5H)-one], the EC50 is 0.0109 µM. With `O=c1c2cc(CN3CCC(c4ccncc4)CC3)ccc2c2cnc(NC3CCC3)nc2n1[C@H]1CC[C@H](O)CC1` [Compound 227, trans-3-(Cyclobutylamino)-5-(4-hydroxycyclohexyl)-8-((4-(pyridin-4-yl)piperidin-1-yl)methyl)pyrimido[4,5-c]isoquinolin-6(5H)-one], the EC50 was 0.0024 µM. Take `O=c1c2cc(CN3CCC(O)(c4ccncc4)CC3)ccc2c2cnc(NCC3CC3)nc2n1[C@H]1CC[C@H](O)CC1` [Compound 228, trans-3-((Cyclopropylmethyl)amino)-8-((4-hydroxy-4-(pyridin-4-yl)piperidin-1-yl)methyl)-5-(4-hydroxycyclohexyl)pyrimido[4,5-c]isoquinolin-6(5H)-one]: the EC50 was found to be 0.0266 µM.

For the compound `CCCCNc1ncc2c3ccc(CN4CCN(C)CC4)cc3c(=O)n([C@H]3CCC[C@H](O)CC3)c2n1` [Compound 229, 3-(butylamino)-5-((1S,4S)-4-hydroxycycloheptyl)-8-((4-methylpiperazin-1-yl)methyl)pyrimido[4,5-c]isoquinolin-6(5H)-one], the EC50 was determined as 0.072 µM. Then `CN1CCN(Cc2ccc3c(c2)c(=O)n([C@H]2CCC[C@H](O)CC2)c2nc(NCC4CC4)ncc32)CC1` [Compound 230, 3-((cyclopropylmethyl)amino)-5-((1S,4S)-4-hydroxycycloheptyl)-8-((4-methylpiperazin-1-yl)methyl)pyrimido[4,5-c]isoquinolin-6(5H)-one], with 0.14 µM; and `CCCCNc1ncc2c3ccc(CN4CCN(C)CC4)cc3c(=O)n([C@H]3CC[C@H](NC(=O)OC(C)(C)C)C3)c2n1` [Compound 231, tert-butyl ((1S,3S)-3-(3-(butylamino)-8-((4-methylpiperazin-1-yl)methyl)-6-oxopyrimido[4,5-c]isoquinolin-5(6H)-yl)cyclopentyl)carbamate], with 1.91 µM. Take `CCCCNc1ncc2c3ccc(CN4CCN(C)CC4)cc3c(=O)n([C@H]3CC[C@H](N)C3)c2n1` [Compound 232, 5-((1S,3S)-3-aminocyclopentyl)-3-(butylamino)-8-((4-methylpiperazin-1-yl)methyl)pyrimido[4,5-c]isoquinolin-6(5H)-one]: the EC50 came out at 0.043 µM.

With `CCCCNc1ncc2c3ccc(CN4CCN(C)CC4)cc3c(=O)n([C@H]3CC[C@H](NC(C)=O)C3)c2n1` [Compound 233, N-((1S,3S)-3-(3-(butylamino)-8-((4-methylpiperazin-1-yl)methyl)-6-oxopyrimido[4,5-c]isoquinolin-5(6H)-yl)cyclopentyl)acetamide], the EC50 came out at 0.512 µM.

For `CCCCNc1ncc2c3ccc(CN4CCN(C)CC4)cc3c(=O)n([C@@H]3CC[C@@H](O)C3)c2n1` [Compound 235, 3-(butylamino)-5-((1R,3R)-3-hydroxycyclopentyl)-8-((4-methylpiperazin-1-yl)methyl)pyrimido[4,5-c]isoquinolin-6(5H)-one], the EC50 turned out to be 0.264 µM. Next, `CCCCNc1ncc2c3ccc(CN4CCN(C)CC4)cc3c(=O)n([C@H]3CC[C@H](N(C)C)C3)c2n1` [Compound 236, 3-(butylamino)-5-((1S,3S)-3-(dimethylamino)cyclopentyl)-8-((4-methylpiperazin-1-yl)methyl)pyrimido[4,5-c]isoquinolin-6(5H)-one]: 0.13 µM.

Take `CCCCNc1ncc2c3ccc(CN4CCN(C)CC4)cc3c(=O)n([C@H]3CC[C@H](NCC(N)=O)C3)c2n1` [Compound 237, 2-(((1S,3S)-3-(3-(butylamino)-8-((4-methylpiperazin-1-yl)methyl)-6-oxopyrimido[4,5-c]isoquinolin-5(6H)-yl)cyclopentyl)amino)acetamide]: the EC50 came out at 0.22 µM. Next, `CCCCNc1ncc2c3ccc(CN4CCN(C)CC4)cc3c(=O)n([C@H]3CC[C@H](NCCO)C3)c2n1` [Compound 238, 3-(butylamino)-5-((1S,3S)-3-((2-hydroxyethyl)amino)cyclopentyl)-8-((4-methylpiperazin-1-yl)methyl)pyrimido[4,5-c]isoquinolin-6(5H)-one]: 0.16 µM.

For `CCCCNc1ncc2c3ccc(CN4CCN(C)CC4)cc3c(=O)n([C@H]3CC[C@H](NC(=N)N)C3)c2n1` [Compound 239, 1-((1S,3 S)-3-(3-(butylamino)-8-((4-methylpiperazin-1-yl)methyl)-6-oxopyrimido[4,5-c]isoquinolin-5(6H)-yl)cyclopentyl)guanidine], the EC50 is 0.947 µM.
